Measurements as given in patent US6084097A, “Methods for preparing 1-[4-arylpiperazin-1-yl]-3-[2-oxopyrrolidin/piperidin-1-yl] propanes” (Council of Scientific & Industrial Research, priority 1997, dated 2000).

Experiments:
anaesthetized cat = test: Effect on blood pressure, heart rate and adrenaline vasopressure response at anaesthetized cat; assay type: in vivo
Experimental: Effect on blood pressure, heart rate and adrenaline
(§1) (a) Cats (2.6-4.0 kg) of either sex anaesthetized with pentobarbitone sodium (40 mg/kg i.v.) and showing basal mean arterial blood pressure below 150 mm (Hg) were categorised as normotensive and above 150 mm Hg as hypertensive. Arterial blood pressure (EP) was recorded from one of the carotid artery through a stathum P23 DC pressure transducer and 7P1 low level DC preamplifier on a Grass Model P7 Polygraph, Signals from 7P1 preamplifier were used to trigger 7P4 Tachograph preamplifier for recording the heart rate (HR). Right femoral vein and Trachea were cannulated for intravenous injections and artificial ventilation respectively. Control responses to intravenous injection of noradrenaline (2-4 ug); acetyl choline (1-2 ug); histamine (1-2 ug) and isoprenaline (1-2 ug) were taken before and after the administration of test doses of each compounds.

[1] = test system: Isolated Guinea pig ileum; test: Isolated Guinea pig ileum preparation; settings: in vitro
[2] = test system: Hypertensive rat model preparation; test: Effect on blood pressure, heart rate and adrenaline vasopressor response, hypertensive rat model preparation; assay type: in vivo
Experimental: (§2) 2. Effect on blood pressure, heart rate and adrenaline vasopressor response of anaesthetized (pentobarbitone sodium 40 & 60 mg/kg i.p. in cat and rat respectively) normotensive & hypertensive rat & cat model preparations.

perfused rat heart = test: Langendorffs perfused rat heart preparation, chronotropic effect
[3] = test system: Naturally occurring hypertensive cat; test: Effect on blood pressure, heart rate and adrenaline vasopressor response, naturally occurring hypertensive cat; assay type: in vivo; settings: n = 4
Experimental: as §2, §1

Rat aortic ring = Rat aortic ring preparation, NE induced contraction; settings: in vitro
cat = test: Drug antagonism studies at 2 uMol dose i.v. in cat; assay type: in vivo; settings: 2 uMol i.v.
Source text: (B) In viva Drug antagonism studies at 2 uMol dose i.v. in cat: […]

[4] = test system: Normotensive rat model preparation; test: Effect on blood pressure, heart rate and adrenaline vasopressor response, normotensive rat model preparation; assay type: in vivo; settings: n = 2
Experimental: as §2

Site of action: ICV = assay type: in vivo; settings: dose 0.34-1.36
[5] = test system: Langendorff perfused rat heart; test: Cardioprotective activity, Langendorff perfused rat heart, prolong period of ischemic insult
Experimental: Further, in Langendorff perfused rat heart preparation subjected to even up to 90 mm. global ischemia, the compound at 0.001 ug/ml conc.
The rats were killed by decaptitation, heart were rapidly excised and placed in ice-cold HEPES tyrode buffer. Then isolated hearts were perfused retrogradely through coronary arteries using the Langendorff technique. The perfusion buffer consisted (in mM) NaCl 137, KCl 5.4, CaCl2 1.8, MgCl2 1.0, glucose 11.2 and HEPES 3.0. The buffer (pH 7.4) was continuously gassed with oxygen and maintained at 37° C. Coronary flow rate was maintained at 10 ml/min. The heart contracted spontaneously.
The perfused heart was allowed to equillibrate for 30 min. before initiation of any insult protocol. The test compounds were given at the time of reperfusion. Some of the compounds were dissolved in ethanol. Final concentration of ethanol in the perfusion buffer was 0.0001% and had no effect of its own on the parameter used.
(b) For prolong period of ischemic insult (Becker, L. C. & Ambrosio, G. Myocardial consenquences of reperfusion. Prog. Cardiovas. Dis., 30, 23-44, 1987). Ischemia was initiated by stopping the flow for 30 min. followed by 30 min. reperfusion.

Isolated aortic strip = test: Isolated aortic strip, endothelin induced contraction
Normotensive cat = test: Effect on blood pressure, heart rate and adrenaline vasopressor response, normotensive cat; assay type: in vivo; settings: n = 4
Experimental: as §2, §1

[6] = Felis catus, iv, 10.0 umol/kg i.v., read-out: B.P. fall %
[7] = Felis catus, iv, 2.0 umol/kg i.v.
[8] = Felis catus, iv, 10.0 umol/kg i.v.
[9] = 0.001 ug/ml at the time of reperfusion, up to 90 mm. global ischemia

In the case of O=C1CCCN1CCCN1CCN(c2ccccn2)CC1 [2-Pyridyl, n=1], the “Adrenaline vasopressure response (R/Pt)” value (anaesthetized cat; 10.0 umol/kg i.v.) is reported as “Pt (potentiation (was within 20%))”, the Blood pressure fall % at 2 µmol/kg (anaesthetized cat; Felis catus, iv, 2.0 umol/kg i.v., read-out: B.P. fall %) is reported as 22% and the Blood pressure fall % at 10 µmol/kg (anaesthetized cat; [6]) is reported as 40%.
In the case of O=C1CCCCN1CCCN1CCN(c2ccccn2)CC1 [2-Pyridyl, n=2, 1-[4-(2-pyridyl)piperazin-1-yl]-3-[2-oxopiperidin-1-yl]propane], the “Adrenaline vasopressure response (R/Pt)” value (anaesthetized cat; 10.0 umol/kg i.v.) is reported as “Pt (potentiation (was within 20%))” and the inhibition in vivo at 2 µmol/kg (anaesthetized cat; [7]) is reported as 28%.
With CCc1ccccc1N1CCN(CCCN2CCCC2=O)CC1 [C6 H4-2-C2 H5, n=1, 1-[4-(2-ethylphenyl)piperazin-1-Yl]-3-[2-oxopyrrolidin-1-yl]propane] the “Adrenaline vasopressure response (R/Pt)” value (anaesthetized cat; 2.0 umol/kg i.v.) was “Pt (potentiation (was within 20%))”.
With COc1ccccc1N1CCN(CCCN2CCCC2=O)CC1 [C6 H4-2-OCH3, n=1] the B.P. fall % (anaesthetized cat; 2.0 umol/kg i.v.) was 19%, the “Adrenaline vasopressure response (R/Pt)” value (anaesthetized cat; 10.0 umol/kg i.v.) was “R” and the Blood pressure fall % at 10 µmol/kg (anaesthetized cat; [6]) was 23%.
With O=C1CCCCN1CCCN1CCN(c2cccc(C(F)(F)F)c2)CC1 [C6 H4-3-CF3, n=2, 1-[4-(3-trifluoromethylphenyl)piperazin-1-yl]-3-[2-oxopiperidin-1-yl]propane] the “Adrenaline vasopressure response (R/Pt)” value (anaesthetized cat; 2.0 umol/kg i.v.) was “Pt (potentiation (was within 20%))”, the Dur. (anaesthetized cat; 10.0 umol/kg i.v.) was “Tr” and the inhibition in vivo at 10 µmol/kg (anaesthetized cat; [8]) was 25%.
In the case of O=C1CCCN1CCCN1CCN(c2cccc(Cl)c2)CC1 [C6 H4-3-Cl, n=1, 1-[4-(3-chlorophenyl)piperazin-1-yl]-3-[2-oxopyrrolidin-1-yl]propane], the “Adrenaline vasopressure response (R/Pt)” value (anaesthetized cat; 2.0 umol/kg i.v.) is reported as “Pt-”.
With O=C1CCCCN1CCCN1CCN(c2cccc(Cl)c2)CC1 [C6 H4-3-Cl, n=2, 1-[4-(3-chlorophenyl)piperazin-1-yl]-3-[2-oxopiperidin-1-yl]propane] the inhibition in vivo at 2 µmol/kg (anaesthetized cat; [7]) was 33% and the inhibition in vivo at 10 µmol/kg (anaesthetized cat; [8]) was 10%.
In the case of O=C1CCCN1CCCN1CCN(c2cccc(F)c2)CC1 [C6 H4-3-F, n=1, 1-[4-(3-fluorophenyl)piperazin-1-yl)-3-[2-oxopyrrolidin-1-yl]propane], the “Adrenaline vasopressure response (R/Pt)” value (anaesthetized cat; 10.0 umol/kg i.v.) is reported as “R” and the inhibition in vivo at 2 µmol/kg (anaesthetized cat; [7]) is reported as 80%.
In the case of O=C1CCCCN1CCCN1CCN(c2ccc(Cl)cc2)CC1 [C6 H4-4-Cl, n=2, 1-[4-(4-chlorophenyl)piperazin-1-yl]-3-[2-oxopiperidin-1-yl]propane], the inhibition in vivo at 2 µmol/kg (anaesthetized cat; [7]) is reported as 20% and the inhibition in vivo at 10 µmol/kg (anaesthetized cat; [8]) is reported as 25%.
For O=C1CCCN1CCCN1CCN(c2ccc(F)cc2)CC1 [C6 H4-4-F, n=1, 1-[4-(4-fluorophenyl)piperazin-1-yl]-3-[2-oxopyrrolidin-1-yl]propane], the “Adrenaline vasopressure response (R/Pt)” value (anaesthetized cat; 10.0 umol/kg i.v.) was “R”, the inhibition in vivo at 2 µmol/kg (anaesthetized cat; [7]) was 9% and the Endothelin response [1] was “relaxation rather than contraction”. For the same compound, the “Adrenaline vasopressure response % inhibition” value ([2]; 5 uMol/kg i.d., n = 3) was 33%, the “B.P. Fall duration” value ([2]; 5 uMol/kg i.d., n = 3) was 51 min and the “Adrenaline vasopressure response % inhibition” value ([2]; 10 uMol/kg i.d., n = 5) was 23%. For the same compound, the “B.P. Fall duration” value ([2]; 10 uMol/kg i.d., n = 5) was 76 min, the “Adrenaline vasopressure response % inhibition” value ([2]; 20 uMol/kg i.d., n = 1) was 54% and the “B.P. Fall duration” value ([2]; 20 uMol/kg i.d., n = 1) was 100 min. For the same compound, the “Negative chronotropic effect, duration” value (perfused rat heart; 1 ug) was 10 min, the “Negative chronotropic effect, duration” value (perfused rat heart; 3 ug (higher doses 3-5 ug)) was 14 min and the “Negative chronotropic effect, duration” value (perfused rat heart; 5 ug (higher doses 3-5 ug)) was 5 min. The inhibition at 0.001 mg (perfused rat heart; Rattus norvegicus, 1 ug, read-out: Negative chronotropic effect) was 30%, the inhibition at 0.003 mg (perfused rat heart; Rattus norvegicus, 3 ug (higher doses 3-5 ug), read-out: Negative chronotropic effect) was 26% and the inhibition at 0.005 mg (perfused rat heart; Rattus norvegicus, 5 ug (higher doses 3-5 ug), read-out: Negative chronotropic effect) was 5%. The “Adrenaline vasopressure response % inhibition” value ([3]; 10 uMol/kg i.d.) was 49%, the “B.P. Fall duration” value ([3]; 10 uMol/kg i.d.) was 110 min and the “Adrenaline vasopressure response, R (Reversal)” value ([3]; 20 uMol/kg i.d.) was 26%. The “B.P. Fall duration” value ([3]; 20 uMol/kg i.d.) was greater than 156.75 min, the NE induced contraction (Rat aortic ring) was “inhibited” and the “Reduction of antihypertensive effect by pretreatment” value (“Reduction of antihypertensive effect” for short) (cat; Dup-753 (angiotension II-receptor antagonist) pretreatment) was 33%. For the same compound, the “Antihypertensive effect after pretreatment” value (cat; atropine sulphate pretreatment) was “failed to alter”, the “Reduction of antihypertensive effect” value (cat; captopril (ACE inhibitor) pretreatment) was 33% and the “Fall in blood pressure after pretreatment” value (cat; glibenclamide (KATP blocker) pretreatment) was “only partially reduced”. The “Antihypertensive effect after pretreatment” value (cat; mepyramine maleate pretreatment) was “failed to alter”, the “Reduction of antihypertensive effect” value (cat; prazosin (alpha1-adrenergic receptor blocker) pretreatment, significantly) was 90% and the “Antihypertensive effect after pretreatment” value (cat; propranolol pretreatment) was “failed to alter”. The “Reduction of antihypertensive effect” value (cat; verapamil (Ca++ channel blocker) pretreatment, significantly) was 50%, the “Antihypertensive effect after pretreatment” value (cat; yohimbine pretreatment) was “failed to alter” and the “Adrenaline vasopressure response % inhibition” value ([4]; 2 uMol/kg i.v.) was “+7%”. For the same compound, the “Adrenaline vasopressure response % inhibition” value ([4]; 10 uMol/kg i.v.) was “+14%”, the “Adrenaline vasopressure response % inhibition” value ([4]; 20 uMol/kg i.v.) was -9.5% and the “B.P. fall Dur.” value (Site of action: ICV) was 10 to 15 min. The “Incidence of reperfusion induced arrhythmia” value [5, 9] was “abolished”, the “Revival of normal rhythmic contraction, start” value [5, 9] was no more than 2 mm and the “Cardioprotective effect against myocardial stunning, dose” value ([5]; compared with antihypertensive dose) was “much smaller dose than antihypertensive dose”. The “Endothelin response after washing the preparation” value (Isolated aortic strip; after washing the preparation) was “relaxation rather than contraction”, the Endothelin induced contraction (Isolated aortic strip; in vitro) was “inhibited significantly” and the “Adrenaline vasopressure response % inhibition” value (Normotensive cat; 10 uMol/kg i.d.) was 26%. The “B.P. Fall duration” value (Normotensive cat; 10 uMol/kg i.d.) was 85 min and the “B.P. Fall duration” value (Normotensive cat; 20 uMol/kg i.d.) was greater than 102.5 min.
In the case of O=C1CCCCN1CCCN1CCN(c2ccc(F)cc2)CC1 [C6 H4-4-F, n=2, 1-[4-(4-fluorophenyl)piperazin-1-yl]-3-[2-oxopiperidin-1-yl]propane], the “Adrenaline vasopressure response (R/Pt)” value (anaesthetized cat; 10.0 umol/kg i.v.) is reported as “R” and the inhibition in vivo at 2 µmol/kg (anaesthetized cat; [7]) is reported as 46%.
